One experiment addresses T1, Human PPARα (Homo sapiens, UniProt Q07869).
T1 construct: host or cells: proprietary non-human mammalian cells
T1 sequence (Q07869 1-468): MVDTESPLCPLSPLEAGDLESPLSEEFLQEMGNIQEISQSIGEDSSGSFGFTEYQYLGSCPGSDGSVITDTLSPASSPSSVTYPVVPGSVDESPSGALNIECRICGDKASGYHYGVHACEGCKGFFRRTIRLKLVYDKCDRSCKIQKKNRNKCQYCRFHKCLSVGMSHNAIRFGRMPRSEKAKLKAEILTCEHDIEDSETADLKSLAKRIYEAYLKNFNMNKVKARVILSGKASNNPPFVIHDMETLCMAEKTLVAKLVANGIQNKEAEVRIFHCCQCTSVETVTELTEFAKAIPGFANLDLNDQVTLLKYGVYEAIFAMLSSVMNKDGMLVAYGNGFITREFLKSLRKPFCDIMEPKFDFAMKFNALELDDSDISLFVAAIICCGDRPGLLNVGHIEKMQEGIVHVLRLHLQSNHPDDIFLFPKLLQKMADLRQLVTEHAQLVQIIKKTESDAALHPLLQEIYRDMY
The experiment is described as follows: Human PPARα Reporter Assay (luciferase). It counts as cell-based. The method, then:
Human PPARα Reporter Assay
The screening of test compounds for agonist or antagonist activities against human PPARα receptors was performed using a commercial kit, Human PPARα Reporter Assay System (Indigo Biosciences, Cat. #IB00111).
This nuclear receptor assay system utilizes proprietary non-human mammalian cells engineered to provide constitutive, high-level expression of Human PPARα. Because these cells incorporate a PPARα-responsive luciferase reporter gene, quantifying expressed luciferase activity provides a sensitive surrogate measure of PPARα activity in the treated cells. The primary application of this reporter assay system is in the screening of test samples to quantify any functional activity, either agonist or antagonist, that they may exert against human PPARα. […] Briefly, the reporter cells are dispensed into wells of the assay plate and then immediately dosed with test compounds. Following an overnight incubation, the treatment media are discarded and Luciferase Detection Reagent (LDR) is added. The intensity of light emission from the ensuing luciferase reaction provides a sensitive measure that is directly proportional to the relative level of PPARα activation in the reporter cells.

Another experiment has as its target T2, PPAR beta/delta (Homo sapiens, UniProt Q03181).
T2 construct: host or cells: engineered reporter cells of the kit (analogous to the human PPARα kit)
T2 sequence (Q03181 1-441): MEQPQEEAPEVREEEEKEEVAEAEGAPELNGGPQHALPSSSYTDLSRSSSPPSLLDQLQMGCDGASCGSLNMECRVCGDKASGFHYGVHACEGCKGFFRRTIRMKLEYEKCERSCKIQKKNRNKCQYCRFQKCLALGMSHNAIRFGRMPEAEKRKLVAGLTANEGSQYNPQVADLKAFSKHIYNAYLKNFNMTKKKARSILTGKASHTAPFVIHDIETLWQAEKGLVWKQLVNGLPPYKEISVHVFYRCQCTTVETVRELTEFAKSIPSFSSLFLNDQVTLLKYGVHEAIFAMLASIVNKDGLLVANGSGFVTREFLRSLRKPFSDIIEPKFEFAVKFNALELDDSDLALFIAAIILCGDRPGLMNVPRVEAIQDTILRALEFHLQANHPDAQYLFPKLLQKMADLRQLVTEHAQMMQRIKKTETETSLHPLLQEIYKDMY
The experiment is described as follows: Target selectivity counterscreen, PPAR β/δ reporter assay. In kind it is cell-based. Particulars: receptor agonist at ~EC80. The method, then: (§1) Target Selectivity Assays
(§2) To determine species selectivity, a Mouse PPARα Reporter Assay System was used (Indigo Biosciences, Cat. #M00111). Activity of test compounds to antagonize or agonize other isoforms of human PPAR, for example β/δ and γ, were assessed using the corresponding kits from Indigo Biosciences (Cat. #IB00121 and #IB00101, respectively). In addition to PPAR activity, compounds were also screened for activity against other nuclear hormone receptors including Estrogen Receptor β, Glucocorticoid Receptor and Thyroid Receptor β using commercially available kits (Indigo Biosciences, Cat. #IB00411, IB00201 and IB01101, respectively). Each assay system from Indigo Biosciences uses technology analogous to the human PPARα kit, with the variance being that the cells used for each assay were engineered to over-express the receptor of interest. In addition, the appropriate receptor agonist (included with each kit) was used at ˜EC80 for assays in which antagonist potency was being assessed.

The next experiment addresses T3, PPAR gamma (Homo sapiens, UniProt P37231).
T3 construct: host or cells: engineered reporter cells of the kit (analogous to the human PPARα kit)
T3 sequence (P37231 1-505): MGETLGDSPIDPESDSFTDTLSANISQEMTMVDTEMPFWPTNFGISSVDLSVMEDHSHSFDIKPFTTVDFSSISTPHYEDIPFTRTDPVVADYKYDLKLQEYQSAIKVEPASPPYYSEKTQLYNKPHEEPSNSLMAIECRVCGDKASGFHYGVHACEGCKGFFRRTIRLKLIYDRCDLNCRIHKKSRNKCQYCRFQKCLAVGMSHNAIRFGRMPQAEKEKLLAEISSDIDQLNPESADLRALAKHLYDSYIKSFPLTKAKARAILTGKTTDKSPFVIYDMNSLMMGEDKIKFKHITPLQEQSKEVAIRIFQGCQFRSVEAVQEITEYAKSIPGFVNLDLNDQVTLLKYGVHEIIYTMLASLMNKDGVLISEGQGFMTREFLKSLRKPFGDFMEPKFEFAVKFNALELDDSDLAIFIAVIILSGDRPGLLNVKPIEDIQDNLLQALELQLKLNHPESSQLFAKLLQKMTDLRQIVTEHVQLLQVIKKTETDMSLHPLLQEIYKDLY
The experiment is described as follows: Target selectivity counterscreen, PPAR γ reporter assay. In kind it is cell-based. The note with it: receptor agonist at ~EC80. How it is done: as §1, §2

The next experiment concerns the target T4, Estrogen Receptor β (Homo sapiens, UniProt Q92731).
T4 construct: host or cells: engineered reporter cells of the kit
Kind of experiment: Target selectivity counterscreen, Estrogen Receptor β reporter assay. In kind it is cell-based. The note with it: receptor agonist at ~EC80. The method, then:
as §1, §2

Another experiment has as its system B16F10 melanoma cells. The experiment is described as follows: In vivo cancer model: B16F10 model of pulmonary metastasis. Also on record: species or system C57BL/6 mice. Particulars: oral doses 0.3, 3 and 30 mg/kg daily, day 21, FIG. 1. How it is done:
In Vivo Cancer Model: B16F10 Model of Pulmonary Metastasis
B16F10 cells were cultured in standard growth media, harvested when approximately 50% confluent and injected into C57BL/6 mice via the tail vein (50,000 cells per mouse in 200 μL). Mice were treated daily with test compound. On day 21, mice were euthanized. Lungs were harvested and placed into Fekete's solution overnight to facilitate visualization of the tumors. Black nodules were enumerated.
Statistics were performed by ANOVA with Dunnett's Multiple Comparison Test post-hoc to determine statistical differences from vehicle treatment group. * denotes P<0.05, while *** denotes P<0.001.

Read-outs that look alike come from different tables or passages of the source.

T4 sequence (Q92731 whole entry): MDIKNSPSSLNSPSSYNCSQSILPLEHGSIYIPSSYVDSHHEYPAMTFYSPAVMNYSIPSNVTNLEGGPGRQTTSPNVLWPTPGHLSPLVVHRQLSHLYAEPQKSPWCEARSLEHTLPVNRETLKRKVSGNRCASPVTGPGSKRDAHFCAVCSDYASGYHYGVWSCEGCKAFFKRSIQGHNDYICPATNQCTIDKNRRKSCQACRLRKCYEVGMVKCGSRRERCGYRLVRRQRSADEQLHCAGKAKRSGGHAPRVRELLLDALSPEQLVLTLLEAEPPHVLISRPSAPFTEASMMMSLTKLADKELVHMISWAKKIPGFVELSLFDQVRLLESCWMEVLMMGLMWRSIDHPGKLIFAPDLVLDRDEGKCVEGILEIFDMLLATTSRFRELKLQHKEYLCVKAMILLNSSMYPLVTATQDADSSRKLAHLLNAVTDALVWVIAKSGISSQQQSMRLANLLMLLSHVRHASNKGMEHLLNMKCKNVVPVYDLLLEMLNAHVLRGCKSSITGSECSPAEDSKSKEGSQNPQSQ

Take `CCOc1ccc(-c2cccc(CCCc3nn(Cc4ccc(C(C)(C)C)cc4)c(=O)n3CC)c2)cc1CC(=O)O` [Example 6, 2-(3′-(3-(1-(4-(tert-Butyl)benzyl)-4-ethyl-5-oxo-4,5-dihydro-1H-1,2,4-triazol-3-yl)propyl)-4-ethoxy-[1,1′-biphenyl]-3-yl)acetic acid]: the IC50 at Human PPARα (antagonist activity, luciferase reporter cells, overnight incubation, read-out: Human PPARα Reporter Assay-Luciferase IC50) amounted to 0.058 µM; on Human PPARα (counterscreen assay results table, read-out: PPAR alpha IC50), 0.058 µM; at PPAR beta/delta, 13.3 µM; on PPAR gamma, 39.8 µM; on Estrogen Receptor β, 19.4 µM. Besides, the “metastasis of B16F10 melanoma cells to the lung (black nodules enumerated)” value with B16F10 melanoma cells is given as “inhibition of metastasis”.

Values taken from patent US9676754B2, “Triazolone compounds and uses thereof” (Inception 2, Inc., priority 2012, dated 2017).
